In EPA's ToxValDB 9.5 (doi:10.2903/j.efsa.2018.5405):
In brackets after ≈: the same amount, converted by molar mass.

How the values were obtained:
Tagia sp. = settings: chronic/long-term; reproduction
Oncorhynchus mykiss = settings: for LC50: acute, duration: 96 hours, mortality
Typhlodromus pyri = assay: LR50; higher = less toxic; settings: acute; mortality
Anas platyrhynchos = settings: reproductive
Colinus virginianus = settings: acute; oral; mortality
Bibionidae = settings: chronic/long-term; duration: 28 days; development
Hypoaspis aculeifer = settings: chronic/long-term; reproduction
Neomysis kadiakensis = settings: chronic/long-term; duration: 28 days; development
Apis mellifera = settings: acute, mortality

| Structure (SMILES) | NOEC (Tagia sp.) [mg/kg] | LC50 (Oncorhynchus mykiss) [µg/mL] | LR50 (Typhlodromus pyri) [g/ha] | NOAEL (Anas platyrhynchos) [mg/kg-day] | LD50 (Rattus norvegicus; acute, oral, mortality) [mg/kg-day] | NOAEL (Rattus norvegicus; chronic) [mg/kg-day] | NOAEL (Rattus norvegicus; subchronic, duration: 13 weeks, inhalation, behavior) [mg/kg-day] | LD50 (Colinus virginianus) [mg/kg-day] | NOEC (Bibionidae) [µg/L] | NOEC (Oncorhynchus mykiss; chronic/long-term, duration: 58 days, growth) [µg/L] | NOEC (Hypoaspis aculeifer) [mg/kg] | NOEC (Neomysis kadiakensis) [µg/L] | LD50 (Apis mellifera; dermal) [µg/piece] | LD50 (Apis mellifera; oral, unspecified) [µg/piece] |
| --- | --- | --- | --- | --- | --- | --- | --- | --- | --- | --- | --- | --- | --- | --- |
| O=C(O)c1ccc(F)c(Oc2ccccc2)c1 [4-Fluoro-3-phenoxybenzoic acid] | 2.6 | 4.06 (≈ 17.5 µM) |  |  |  |  |  |  |  |  |  |  |  |  |
| CC1(C)C(C=C(Cl)Cl)[C@@H]1C(=O)O[C@@H](C#N)c1ccc(F)c(Oc2ccccc2)c1 (stereo partly drawn) [beta-Cyfluthrin] |  | 6.8e-05 (≈ 0.000157 µM) | 0.0025 | 2.6 | > 8.79 | 1.39 | 0.02 | > 58.6 | 0.0057 | 0.0042 | 0.485 | 0.00041 | 0.012 | 0.05 |
